According to BindingDB's records for doi:10.7270/Q28K77GS (University of Pittsburgh, 2007):

These molecules were tested against T1, Dual specificity protein phosphatase 1 (Homo sapiens, UniProt P28562) (assay: MKP-1 phosphatase inhibitors, dose response, biochemical, probe assessment (AID 674)).
T1 sequence (P28562 whole entry): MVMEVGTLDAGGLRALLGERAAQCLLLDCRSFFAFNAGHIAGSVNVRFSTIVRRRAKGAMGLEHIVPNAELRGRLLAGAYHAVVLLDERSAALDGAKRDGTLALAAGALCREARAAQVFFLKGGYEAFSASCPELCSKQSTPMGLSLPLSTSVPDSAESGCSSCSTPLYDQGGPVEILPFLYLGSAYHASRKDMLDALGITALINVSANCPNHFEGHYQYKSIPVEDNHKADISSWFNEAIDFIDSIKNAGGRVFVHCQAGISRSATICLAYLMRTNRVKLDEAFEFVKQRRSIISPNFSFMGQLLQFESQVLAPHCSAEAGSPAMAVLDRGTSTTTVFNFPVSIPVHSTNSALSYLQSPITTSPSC

Row | Compound | IC50
1 | O=C(Nc1ccc2nc(-c3ccco3)c(-c3ccco3)nc2c1)N1CCCCCC1 | > 50 µM
2 | Cc1ccc2c(c1C)NC(C(=O)O)C1CC=CC21 (stereo not drawn) | 42.5 µM
3 | O=C(O)C1Nc2c(O)cccc2C2C=CCC12 (stereo not drawn) | > 50 µM
4 | Cn1ncnc2c(=O)n(C)c(=O)nc1-2 | 0.423 µM
5 | [O-]/[N+](=C\c1ccncc1)c1ccccc1 | > 50 µM
6 | COc1cccc2c(C)c(C(=O)O)[nH]c12 | > 50 µM
7 | O=C1C=Cc2ccccc2C1=O [1,2-dihydronaphthalene-1,2-dione] | > 50 µM
8 | CCn1nc(-c2ccccc2)nc2c(=O)n(C)c(=O)nc1-2 [1-Ethyl-6-methyl-3-phenyl-1H-pyrimido[5,4-e][1,2,4]triazine-5,7-dione] | 0.485 µM
9 | [O-]/[N+](=C\c1ccc(OC(F)F)cc1)c1ccccc1 [1-[4-(difluoromethoxy)phenyl]-N-phenylmethanimine oxide] | > 50 µM
10 | CCn1nc(-c2cccs2)nc2c(=O)n(C)c(=O)nc1-2 [1-ethyl-6-methyl-3-thiophen-2-yl-pyrimido[5,4-e][1,2,4]triazine-5,7-dione] | 0.333 µM
11 | O=C1Cc2ccccc2C(=O)N1CCc1ccccc1 [2-(2-phenylethyl)-4H-isoquinoline-1,3-dione] | > 50 µM
12 | N#Cc1c(N)sc(=S)c2c1CCN(Cc1ccccc1)C2 [3-Amino-7-benzyl-1-thioxo-5,6,7,8-tetrahydro-1H-thiopyrano[3,4-c]pyridine-4-carbonitrile] | 2.38 µM
13 | Cc1ccccc1Nc1cc2ccccc2c(O)n1 [3-[(2-methylphenyl)amino]-2H-isoquinolin-1-one] | 8.75 µM
14 | COc1ccc(Br)cc1C=c1sc2nc(-c3ccco3)nn2c1=O [5-[(5-bromanyl-2-methoxy-phenyl)methylidene]-2-(furan-2-yl)-[1,3]thiazolo[3,2-b][1,2,4]triazol-6-one] | 7.02 µM
15 | CC(=O)Nc1cc(OC(C)=O)c2nonc2c1OC(C)=O [Acetic acid 7-acetoxy-5-acetylamino-benzo[1,2,5]oxadiazol-4-yl ester] | > 50 µM
16 | CCOC(=O)C(C(=O)OCC)c1cc(Br)c2noc3c2c1C(=O)c1ccccc1-3 [MLS000038842] | > 50 µM
17 | Oc1nc(Nc2ccccc2)cc2ccccc12 [MLS000043701] | 10.7 µM
18 | O=C1C=Cc2ccccc2/C1=C/NC12CN3CCN(CN(C3)C1)C2 [MLS000071484] | > 50 µM
19 | Cc1c(N=c2c(=O)c3ccccc3c2=O)c(=O)n(-c2ccccc2)n1C [MLS000105950] | 43.8 µM
20 | CCOc1ccc2noc3c2c1C(=O)c1ccccc1-3 [MLS000106837] | > 50 µM
21 | COc1ccc2noc3c2c1C(=O)c1ccccc1-3 [MLS000106874] | > 50 µM
22 | c1ccc(CSc2nnc(-c3ccco3)c(-c3ccco3)n2)cc1 [MLS-0029114.0001] | > 50 µM
23 | Cc1ccc2c(c1)C1C=CCC1C(C(=O)O)N2 (stereo not drawn) [MLS-0067149.0001] | > 50 µM
24 | O=C(NC1(O)C(=O)c2ccccc2C1=O)c1ccccc1 [N-(2-hydroxy-1,3-dioxo-2-indenyl)benzamide] | > 50 µM
25 | COc1cccc2c1NC(C(=O)O)C1CC=CC21 (stereo not drawn) [SMR000009698] | > 50 µM
26 | O=C(OC1CCCCC1)c1ccc2c(c1)C1C=CCC1C(C(=O)O)N2 (stereo not drawn) [SMR000019385] | 4.61 µM
27 | N#Cc1c(N2CCCC2)nc(N)c2c(N)nc(N3CCCC3)cc12 [SMR000061605] | 14.6 µM
28 | Nc1cccc2cnccc12 [isoquinolin-5-amine] | > 50 µM
